Laboratory results reported in BindingDB's records for doi:10.1016/j.bmcl.2017.01.084 (China Pharmaceutical University, 2017).

Assay: Agonist activity at VDR in human HL60 cells assessed as induction of cell differentiation by measuring increase in NBT positive cells by Wright staining based microscopic method

SMILES | EC50 [nM]
CCn1c(C(=O)NCCCO)ccc1C(CC)(CC)c1ccc(C#CC(O)(CC)CC)c(C)c1 | 137
CCn1cc(C(CC)(CC)c2ccc(C#CC(O)(CC)CC)c(C)c2)cc1C(=O)N[C@@H](C)CO | 7.3
CCN(CC)CCNC(=O)c1ccc(C(CC)(CC)c2ccc(C#CC(O)(CC)CC)c(C)c2)n1CC | 10
CCN(CC)CCNC(=O)c1cc(C(CC)(CC)c2ccc(C#CC(O)(CC)CC)c(C)c2)cn1CC | 7
CCN(CC)CCNC(=O)c1ccc(C(CC)(CC)c2ccc(OCC(O)C(C)(C)C)c(C)c2)n1CC (stereo not drawn) | 6.5
CCn1c(C(=O)NCCC(=O)OC)ccc1C(CC)(CC)c1ccc(C#CC(O)(CC)CC)c(C)c1 | > 50
CCN(CC)CCCNC(=O)c1ccc(C(CC)(CC)c2ccc(C#CC(O)(CC)CC)c(C)c2)n1CC | 69
CCn1c(C(=O)NCc2ccc(OC)cc2)ccc1C(CC)(CC)c1ccc(C#CC(O)(CC)CC)c(C)c1 | > 50
C#CCCOC(=O)c1ccc(C(CC)(CC)c2ccc(C#CC(O)(CC)CC)c(C)c2)n1CC | > 50
CCCCC(=O)c1ccc(C(CC)(CC)c2ccc(C#CC(O)(CC)CC)c(C)c2)n1CC | > 50
CCn1c(C(=O)NCC(=O)O)ccc1C(CC)(CC)c1ccc(C#CC(O)(CC)CC)c(C)c1 | 9.4
CCn1c(C(=O)N[C@H](C(=O)O)C(C)C)ccc1C(CC)(CC)c1ccc(C#CC(O)(CC)CC)c(C)c1 | 18
CCn1c(C(=O)NCCC(=O)O)ccc1C(CC)(CC)c1ccc(C#CC(O)(CC)CC)c(C)c1 | 293
CCn1cc(C(CC)(CC)c2ccc(C#CC(O)(CC)CC)c(C)c2)cc1C(=O)NCC(=O)OC | 288
CCn1cc(C(CC)(CC)c2ccc(C#CC(O)(CC)CC)c(C)c2)cc1C(=O)NCCN(C)C | 19
CCn1cc(C(CC)(CC)c2ccc(C#CC(O)(CC)CC)c(C)c2)cc1C(=O)NCCCN(C)C | 142
CCn1cc(C(CC)(CC)c2ccc(C#CC(O)(CC)CC)c(C)c2)cc1C(=O)OCCO | 13
CCn1cc(C(CC)(CC)c2ccc(C#CC(O)(CC)CC)c(C)c2)cc1C(=O)NCC(=O)O | 54
CCn1cc(C(CC)(CC)c2ccc(C#CC(O)(CC)CC)c(C)c2)cc1C(=O)NCCC(=O)O | > 50
CCn1cc(C(CC)(CC)c2ccc(C#CC(O)(CC)CC)c(C)c2)cc1C(=O)N[C@@H](C(=O)O)C(C)C | 68
CCn1c(C(=O)On2nnc3ccccc32)ccc1C(CC)(CC)c1ccc(C#CC(O)(CC)CC)c(C)c1 | > 50
CCCCC(=O)c1cc(C(CC)(CC)c2ccc(C#CC(O)(CC)CC)c(C)c2)cn1CC | > 50
CCn1cc(C(CC)(CC)c2ccc(C#CC(O)(CC)CC)c(C)c2)cc1C(=O)N[C@H](C(=O)O)C(C)C | 13
